Measurements: patent US5981181A, “DNA sequences with oligosaccharide transporter, plasmids bacteria and plants containing a transporter as well as a process for the preparation and transformation of yeast strains for identification of the transporter” (Hoechst Schering AgrEvo GmbH, priority 1992, dated 1999)

Key:
[1] = molecular target: T1, sucrose transporter from spinach (Spinacia oleracea, UniProt Q03411); assay: cell-based
T1 construct: which contain, as inserts, the cDNA for the sucrose transporter from spinach; expressed in transfected cells; host or cells: Saccharomyces cerevisiae YSH2.64-1A suc- with integrated potato sucrose synthase (susy), transformed with YEplac112A1NE-S21
T1 sequence (Q03411 1-525): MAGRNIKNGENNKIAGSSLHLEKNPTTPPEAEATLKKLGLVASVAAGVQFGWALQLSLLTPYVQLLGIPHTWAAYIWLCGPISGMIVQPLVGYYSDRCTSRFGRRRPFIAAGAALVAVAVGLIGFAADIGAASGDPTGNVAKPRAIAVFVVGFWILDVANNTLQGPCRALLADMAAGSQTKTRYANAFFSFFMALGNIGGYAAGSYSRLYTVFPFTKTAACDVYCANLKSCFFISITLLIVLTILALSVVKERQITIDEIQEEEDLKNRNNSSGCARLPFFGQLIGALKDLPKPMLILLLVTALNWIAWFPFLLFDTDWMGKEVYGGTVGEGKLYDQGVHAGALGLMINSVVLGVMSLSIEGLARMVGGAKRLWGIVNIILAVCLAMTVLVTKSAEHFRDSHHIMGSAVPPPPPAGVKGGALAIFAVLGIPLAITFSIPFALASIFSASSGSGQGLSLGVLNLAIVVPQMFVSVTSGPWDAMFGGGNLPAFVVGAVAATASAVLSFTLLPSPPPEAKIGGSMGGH
Protocol: Time pattern of the uptake of sucrose in yeast cells. "pmol/mg cells"=amount of the ^14 C-labelled sucrose in pmol taken up in relation to the moisture weight of the yeast cells per mg; "112"=starting strain (without transporter); "+Glucose"=pre-incubation of the cells in a medium of 10 mM glucose; "-Glucose"=no pre-incubation of the cells; […], carbonyl cyanide m-chlorophenylhydrazone (CCCP) in a concentration of 2.5 μM; […] p-chloromercuribenzenesulfonicacid (PCMBS) in a concentration of 500 μM; […] antimycin in a concentration of 10 μM.
After centrifuging the culture, the cells were subjected to a pre-incubation for 5 minutes in a glucose containing medium and then taken up in a medium containing ^14 C-labelled sucrose. The uptake of the labelled sucrose was measured by the process described by Cirillo (1989, Meth Enzymol 174: 617-622). The uptake of the labelled sucrose without preincubation with glucose was compared with that with co-incubation with the inhibitors carbonyl cyanide m-chlorophenylhydrazone(CCCP), p-chloromercuribenzenesulfonic acid (PCMBS) and antimycin.

[2] = molecular target: T1, sucrose transporter from spinach; assay: Competition experiment with various sugars as competitor for the labelled sucrose in yeast YEplac112A1NE-S21; assay type: cell-based; conditions: in relation to YEplac112A1NE-S21 control = 100; for activity at 2000 µM: 2mM competitor; for activity at 2000 µM / activity at 10000 µM: read-out: sucrose transport (%)
Protocol: The yeast transformand YEplac112A1NE-S21, corresponding to that obtained in Example 2, was grown in liquid medium until the culture had reached the logarithmic phase. After centrifuging the culture, the cells were subjected to a pre-incubation for 5 minutes in a glucose containing medium and then taken up in a medium containing ^14 C-labelled sucrose. The uptake of the labelled sucrose was measured by the process described by Cirillo (1989, Meth Enzymol 174: 617-622). The uptake of the labelled sucrose without preincubation with glucose was compared with that with co-incubation with the inhibitors carbonyl cyanide m-chlorophenylhydrazone(CCCP), p-chloromercuribenzenesulfonic acid (PCMBS) and antimycin. The calculated reduction of the sucrose uptake by the inhibitors is shown in table I. A competition experiment with various sugars as competitor for the labelled sucrose, from which the specificity of the transporter can be read off, is shown in table II.

[3] = test system: sucrose transport through the membrane; conditions: plasma membranes; Slone & Buckhout, 1991; cited from earlier work
[4] = read-out: sucrose transport (%)

O=[As]([O-])([O-])O.[Na+].[Na+] [sodium arsenate]
sucrose transport (%) ([1]; 1mM inhibitor, in relation to YEplac112A1NE-S21 control = 100): 34%

O=S(=O)(O)c1cc[c]([Hg][Cl])cc1 [PCMBS, p-chloromercuribenzenesulfonic acid]
sucrose transport (%) ([1]; 25μM inhibitor, in relation to YEplac112A1NE-S21 control = 100): 73% | sucrose transport (%) ([1]; 100μM inhibitor, in relation to YEplac112A1NE-S21 control = 100): 21%

O=C(CCc1ccc(O)cc1)c1c(O)cc(O)cc1O[C@@H]1O[C@H](CO)[C@@H](O)[C@H](O)[C@H]1O [phloridzin]
activity at 2000 µM [2]: 16%

antimycin A
sucrose transport (%) ([1]; 10μM inhibitor, in relation to YEplac112A1NE-S21 control = 100): 59%

OC[C@H]1O[C@@](CO)(O[C@H]2O[C@H](CO)[C@@H](O)[C@H](O)[C@H]2O)[C@@H](O)[C@@H]1O [sucrose]
activity at 2000 µM [2]: 28% | Km [3]: ~1000 µM

OC[C@H]1O[C@H](OC[C@H]2OC(O)(CO)[C@@H](O)[C@@H]2O)[C@H](O)[C@@H](O)[C@@H]1O (some centres unmarked) [palatinose]
sucrose transport (%) ([2]; 10mM competitor): 102%

OC[C@H]1OC(Oc2ccccc2)[C@H](O)[C@@H](O)[C@@H]1O (some centres unmarked) [phenylglucoside]
activity at 2000 µM [2]: 7%

N#CC(C#N)=NNc1cccc(Cl)c1 [CCCP, carbonyl cyanide m-chlorophenylhydrazone]
activity at 0.5 µM ([1]; 0.5μM inhibitor, in relation to YEplac112A1NE-S21 control = 100, read-out: sucrose transport (%)): 65% | activity at 2.5 µM ([1]; 2.5μM inhibitor, in relation to YEplac112A1NE-S21 control = 100, read-out: sucrose transport (%)): 21%

OC[C@H]1O[C@H](O[C@H]2[C@H](O)[C@@H](O)[C@H](O)O[C@@H]2CO)[C@H](O)[C@@H](O)[C@@H]1O [maltose]
activity at 2000 µM [2]: 58% | activity at 10000 µM ([2]; 10mM competitor): 37%

OC[C@H]1O[C@@H](O[C@H]2[C@H](O)[C@@H](O)C(O)O[C@@H]2CO)[C@H](O)[C@@H](O)[C@H]1O (some centres unmarked) [lactose]
activity at 2000 µM [2]: 91%

OC[C@H]1O[C@H](O[C@H]2O[C@H](CO)[C@@H](O)[C@H](O)[C@H]2O)[C@H](O)[C@@H](O)[C@@H]1O [trehalose]
activity at 10000 µM ([2]; 10mM competitor): 103%

O=[N+]([O-])c1ccc(O)c([N+](=O)[O-])c1 [2,4-DNP, 2,4dinitrophenol]
activity at 25 µM [1, 4]: 61% | activity at 100 µM [1, 4]: 9%
